Source: US11109593B2, “Isoxazolin-5-one derivative and herbicide containing same as active ingredient” (HOKKO CHEMICAL INDUSTRY CO., LTD., priority 2017, dated 2021)

What was measured:
Format in all cases: in vivo
Echinochloa crus-galli [1] = assay: Test Example 2: herbicidal effect test by treatment during growing period in paddy rice cultivation (seven days after seeding); conditions: 120 g/10a active ingredient, assessed 14 days after treatment, dry weight vs untreated area
In short: (§1)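 Seeds sown 0–1 cm deep in puddled, fertilised paddy soil with about 3 cm standing water in a glass greenhouse. Diluted emulsion dropped into the water seven days after seeding at 120 g active ingredient per 10 ares. Herbicidal rate (%) from mean dry weight vs untreated, duplicate, 14 days after treatment.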

Scirpus juncoides [2] = assay: as above; conditions: 120 g/10a active ingredient, assessed 14 days after treatment, dry weight vs untreated area
In short: as §1

[3] = tested on: broad leaf weeds (Lindernia pyxidaria and Monochoria vaginalis); assay: as above; conditions: 120 g/10a active ingredient, assessed 14 days after treatment, dry weight vs untreated area
In short: as §1

Echinochloa crus-galli [4] = assay: Test Example 3: herbicidal effect test by treatment of dry field farming soil (one day after seeding); conditions: 120 g/10a active ingredient, evaluated 14 days after treatment
In short: (§2)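 Alluvial dry-field soil in pots, top 1 cm mixed with 20 seeds per weed species. One day after seeding, the water-diluted emulsion was sprayed onto the soil surface at 100 L per 10 ares (120 g active ingredient per 10 ares). Duplicate pots; herbicidal rate (%) from plant dry weight versus untreated, 14 days after treatment.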

southern crabgrass [5] = assay: as above; conditions: 120 g/10a active ingredient, evaluated 14 days after treatment
In short: as §2

Chenopodium album [6] = assay: as above; conditions: 120 g/10a active ingredient, evaluated 14 days after treatment
In short: as §2

Amaranthus viridis [7] = assay: as above; conditions: 120 g/10a active ingredient, evaluated 14 days after treatment
In short: as §2

Echinochloa crus-galli [8] = assay: Test Example 4: herbicidal effect test by treatment of leave and stem in dry field farming (seven days after seeding); conditions: 120 g/10a active ingredient; emulsion sprayed seven days after seeding; evaluated 14 days after treatment
Description: (§3) This test was conducted in a double system per one agent solution concentration area, and the herbicidal rates (%) were determined by the following equation (Math. 1) on 14 days after the treatment with the agents. Herbicidal Rate (%)={1-(Average Dry Weight (g) of Plant of Treated Area)/(Average Dry Weight (g) of Plant of Untreated Area)}×100 [Math. 1]
(§4) Herbicidal Effect Test by Treatment of Leave and Stem in Dry Field Farming
(§5) Pots with a size of 36 cm^2 were filled with a dry field farming soil (alluvium). The soil of the top layer of 1 cm and seeds of weeds, namely southern crabgrass, Echinochloa crus-galli, Chenopodium album and Amaranthus viridis, 20 seeds each, were evenly mixed, and the top layer was gently pressed. Emulsions prepared using the compounds in Table 6 below according to Formulation Example 5 were diluted with water seven days after seeding, and the water-diluted agent solutions were sprayed to the soil surfaces at a ratio of 100 liters per 10 ares. The converted amount of the applied active ingredient corresponded to 120 g per 10 ares. The herbicidal effects were evaluated by the same standard as that in Test Example 1 on 14 days after the treatment with the agents. […] The compound numbers in Table 6 are the same as those in Table 1 and Table 2 above.

southern crabgrass [9] = assay: as above; conditions: 120 g/10a active ingredient; emulsion sprayed seven days after seeding; evaluated 14 days after treatment
Description: as §3, §4, §5

Chenopodium album [10] = assay: as above; conditions: 120 g/10a active ingredient; emulsion sprayed seven days after seeding; evaluated 14 days after treatment
Description: as §3, §4, §5

Amaranthus viridis [11] = assay: as above; conditions: 120 g/10a active ingredient; emulsion sprayed seven days after seeding; evaluated 14 days after treatment
Description: as §3, §4, §5

Echinochloa crus-galli [12] = assay: Test Example 1: herbicidal effect test by treatment of rice paddy soil (immediately after seeding); conditions: 120 g/10a active ingredient, dry weight vs untreated area, 14 days after treatment
In short: (§6)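 Paddy soil in pots with compound fertilizer, puddled; 30 seeds per species sown at 0–1 cm, flooded ~3 cm, greenhouse. Water-diluted emulsions dropped onto water immediately after seeding at 120 g active ingredient per 10 ares, duplicate. Herbicidal rate (%) from plant dry weight versus untreated, 14 days after treatment.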

Scirpus juncoides [13] = assay: as above; conditions: 120 g/10a active ingredient, dry weight vs untreated area, 14 days after treatment
In short: as §6

[14] = tested on: broad leaf weeds (Lindernia pyxidaria and Monochoria vaginalis); assay: as above; conditions: 120 g/10a active ingredient, dry weight vs untreated area, 14 days after treatment
In short: as §6

SMILES	Herbicidal rate (%) Echinochloa crus-galli (Echinochloa crus-galli [1]) [%]	Herbicidal rate (%) Scirpus juncoides (Scirpus juncoides [2]) [%]	Herbicidal rate (%) Lindernia pyxidaria [3] [%]	Herbicidal rate (%) Monochoria vaginalis [3] [%]	herbicidal rate, Echinochloa crus-galli (Echinochloa crus-galli [4]) [%]	herbicidal rate, southern crabgrass (southern crabgrass [5]) [%]	herbicidal rate, Chenopodium album (Chenopodium album [6]) [%]	herbicidal rate, Amaranthus viridis (Amaranthus viridis [7]) [%]	herbicidal effect (herbicidal rate), Echinochloa crus-galli (Echinochloa crus-galli [8]) [%]	herbicidal effect (herbicidal rate), southern crabgrass (southern crabgrass [9]) [%]	herbicidal effect (herbicidal rate), Chenopodium album (Chenopodium album [10]) [%]	herbicidal effect (herbicidal rate), Amaranthus viridis (Amaranthus viridis [11]) [%]	Herbicidal rate (%) Echinochloa crus-galli (Echinochloa crus-galli [12]) [%]	Herbicidal rate (%) Scirpus juncoides (Scirpus juncoides [13]) [%]	Herbicidal rate (%) Lindernia pyxidaria [14] [%]	Herbicidal rate (%) Monochoria vaginalis [14] [%]
CCC(C)n1oc(=O)c(Cc2ccccc2N(C(=O)OCc2ccccc2)S(=O)(=O)C(F)(F)F)c1C (single isomer, unassigned) [1-783 (TLC bottom)]	90	90	90	90	90	90	90	90	90	90	40	40	90	90	90	90
CCC(C)Cn1oc(=O)c(Cc2ccccc2N(C(=O)OCc2ccccc2)S(=O)(=O)C(F)(F)F)c1C (single isomer, unassigned) [1-789 (TLC bottom)]	100	90	60	90	90	60	80	70	50	50	40	60	100	90	90	90
Cc1ccc(Cn2oc(=O)c(Cc3ccccc3NS(=O)(=O)C(F)(F)F)c2C)cc1 [Compound 1-191]	90	90	80	80					90	40	40	80	90	90	100	90
CCCOC(=O)N(c1ccccc1Cc1c(C)n(C(C)CC)oc1=O)S(=O)(=O)C(F)(F)F (centres unmarked) [Compound 1-632]	90	90	90	90					90	90	40	40	90	90	90	90
Cc1c(Cc2ccccc2N(S(=O)(=O)C(F)(F)F)S(=O)(=O)C(F)(F)F)c(=O)on1CCCl [Compound 1-983]	40	80	80	80					60	40	0	40	70	90	90	90
CSCCn1oc(=O)c(Cc2ccccc2N(S(=O)(=O)C(F)(F)F)S(=O)(=O)C(F)(F)F)c1C [Compound 1-1002]	90	80	60	80					90	60	70	50	100	100	100	100
CSCCCn1oc(=O)c(Cc2ccccc2N(S(=O)(=O)C(F)(F)F)S(=O)(=O)C(F)(F)F)c1C [Compound 1-1003]	100	90	70	70					60	40	0	40	100	90	90	90
Cc1c(Cc2ccccc2N(S(=O)(=O)C(F)(F)F)S(=O)(=O)C(F)(F)F)c(=O)on1C(C)c1ccccc1 (centres unmarked) [Compound 1-1030]	90	90	90	90					90	40	40	40	90	90	100	100
CCCCCC(c1ccccc1)n1oc(=O)c(Cc2ccccc2N(S(=O)(=O)C(F)(F)F)S(=O)(=O)C(F)(F)F)c1C (centres unmarked) [Compound 1-1042]	60	70	60	60					0	50	40	40	90	90	90	80
Cc1c(Cc2ccccc2N(S(=O)(=O)C(F)(F)F)S(=O)(=O)C(F)(F)F)c(=O)on1CC(C)c1ccccc1 (centres unmarked) [Compound 1-1046]	90	90	60	90					90	60	0	90	100	90	70	80
